Experimental data taken from publication PMC8972196, “A Set of Experimentally Validated Decoys for the Human CC Chemokine Receptor 7 (CCR7) Obtained by Virtual Screening” (Frontiers in Pharmacology, 2022).
Where two headings read alike, the source gives them in different places.

Legend:
[1] = target: T1, human CCR7 (Homo sapiens, UniProt P32248); assay: CCL19-induced calcium mobilization assay, U87.CD4 cells expressing CCR7; format: cell-based
T1 construct: expressed in transfected cells
T1 sequence (P32248 25-378): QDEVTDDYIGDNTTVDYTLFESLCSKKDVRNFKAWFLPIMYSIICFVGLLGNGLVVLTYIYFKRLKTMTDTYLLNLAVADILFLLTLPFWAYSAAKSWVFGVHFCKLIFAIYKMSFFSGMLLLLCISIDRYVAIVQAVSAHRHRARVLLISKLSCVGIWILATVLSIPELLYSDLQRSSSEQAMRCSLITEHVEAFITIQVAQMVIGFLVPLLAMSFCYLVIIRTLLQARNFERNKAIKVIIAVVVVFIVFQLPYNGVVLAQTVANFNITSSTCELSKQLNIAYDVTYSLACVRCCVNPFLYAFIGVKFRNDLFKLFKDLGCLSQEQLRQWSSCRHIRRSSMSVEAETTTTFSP
In short: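 Calcium mobilization was recorded in U87.CD4 cells stably carrying human CXCR2 (stimulated with CXCL8), CCR7 (stimulated with CCL19) or CCR5. Cells were plated at 20,000 cells/well, cultured overnight at 37°C in 5% CO2, and incubated 45 min at room temperature in the dark before reading.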

[2] = test system: CCR7; set-up: method as in Jaeger et al., 2019; settings: result in words; ref Jaeger et al., 2019; cited from earlier work
[3] = CCL19 induced calcium signaling, read-out: IC50 [μM] block CCL19 induced calcium signaling
[4] = classification as decoy or active on CCR7

| Compound | IC50 [1, 3] [µM] | Decoy – 0 Active – 1 [1, 4] | further results |
| --- | --- | --- | --- |
| CCCc1ccc(S(=O)(=O)NC2COc3ccc(OC)cc3C2)cc1 (stereo not shown) [C254, CCCc1ccc(cc1)S(=O)(=O)NC2Cc3cc(ccc3OC2)OC] | > 50 | 0 | – |
| COc1cccc(N(CC(=O)Nc2cccc([N+](=O)[O-])c2)S(=O)(=O)c2ccc(C)cc2)c1 [C255, Cc1ccc(cc1)S(=O)(=O)N(CC(=O)Nc2cccc(c2)[N+](=O)[O-])c3cccc(c3)OC] | > 50 | 0 | – |
| O=S(=O)(NC(c1cccnc1)C1CCOCC1)c1ccc2c(c1)CCO2 (stereo not shown) [C256, c1cc(cnc1)C(C2CCOCC2)NS(=O)(=O)c3ccc4c(c3)CCO4] | > 50 | 0 | – |
| CC1CC(C)CN(C(=O)c2ccccc2NS(=O)(=O)c2ccc3[nH]c(=O)[nH]c3c2)C1 (stereo not shown) [C257, CC1CC(CN(C1)C(=O)c2ccccc2NS(=O)(=O)c3ccc4c(c3)[nH]c(=O)[nH]4)C] | > 50 | 0 | – |
| Cc1ccc(S(=O)(=O)N(CCC(N)=O)Cc2ccccc2)cc1 [C258, Cc1ccc(cc1)S(=O)(=O)N(CCC(=O)N)Cc2ccccc2] | > 50 | 0 | – |
| COc1ccc(S(=O)(=O)N(CC(=O)NCc2ccccn2)Cc2ccccc2)cc1 [C259, COc1ccc(cc1)S(=O)(=O)N(Cc2ccccc2)CC(=O)NCc3ccccn3] | > 50 | 0 | – |
| COc1ccc(S(=O)(=O)Nc2ccccc2C(=O)N2CCOCC2)cc1C [C260, Cc1cc(ccc1OC)S(=O)(=O)Nc2ccccc2C(=O)N3CCOCC3] | > 50 | 0 | – |
| CCNC(=O)c1ccc(CNS(=O)(=O)c2ccc3c(c2)CCC3)cc1 [C261, CCNC(=O)c1ccc(cc1)CNS(=O)(=O)c2ccc3c(c2)CCC3] | > 50 | 0 | – |
| Cc1ccc(S(=O)(=O)C(CNS(=O)(=O)c2ccc(F)cc2)c2cccnc2)cc1 (stereo not shown) [C262, Cc1ccc(cc1)S(=O)(=O)C(CNS(=O)(=O)c2ccc(cc2)F)c3cccnc3] | > 50 | 0 | – |
| COc1ccc(S(=O)(=O)N(CC(=O)N2CCCC2)c2ccc(Cl)cc2)cc1 [C263, COc1ccc(cc1)S(=O)(=O)N(CC(=O)N2CCCC2)c3ccc(cc3)Cl] | > 50 | 0 | – |
| Cc1ccc(S(=O)(=O)NC(C)C(c2ccccc2)N2CCOCC2)cc1 (stereo not shown) [C264, Cc1ccc(cc1)S(=O)(=O)NC(C)C(c2ccccc2)[NH+]3CCOCC3] | – | 0 | IC50 [1]: > 50 µM |
| COc1ccc(S(=O)(=O)N2CC(C(=O)Nc3ccccc3)Oc3ccccc32)cc1 (stereo not shown) [C265, COc1ccc(cc1)S(=O)(=O)N2CC(Oc3c2cccc3)C(=O)Nc4ccccc4] | > 50 | 0 | – |
| Cc1ccc(S(=O)(=O)N2c3ccccc3CC2CO)cc1[N+](=O)[O-] (stereo not shown) [C266, Cc1ccc(cc1[N+](=O)[O-])S(=O)(=O)N2c3ccccc3CC2CO] | > 50 | 0 | – |
| COc1ccc(S(=O)(=O)NC(c2ccc(F)cc2)c2nccn2C)cc1 (stereo not shown) [C267, Cn1ccnc1C(c2ccc(cc2)F)NS(=O)(=O)c3ccc(cc3)OC] | > 50 | 0 | – |
| CC1CN(S(=O)(=O)c2ccc(CCC(=O)O)cc2)c2ccccc21 (stereo not shown) [C268, CC1CN(c2c1cccc2)S(=O)(=O)c3ccc(cc3)CCC(=O)[O-]] | > 50 | 0 | – |
| Cn1cc(C2CN(S(=O)(=O)c3ccc4c(c3)CCCC4)CC2CO)cn1 (stereo not shown) [C269, Cn1cc(cn1)C2CN(CC2CO)S(=O)(=O)c3ccc4c(c3)CCCC4] | > 50 | 0 | – |
| CNC(=O)CN(c1ccc(Cl)cc1)S(=O)(=O)c1ccc(OC)c(OC)c1 [C270, CNC(=O)CN(c1ccc(cc1)Cl)S(=O)(=O)c2ccc(c(c2)OC)OC] | > 50 | 0 | – |
| COc1ccc(CCNC(=O)CN(c2ccc([N+](=O)[O-])cc2)S(=O)(=O)c2ccccc2)cc1 [C271, COc1ccc(cc1)CCNC(=O)CN(c2ccc(cc2)[N+](=O)[O-])S(=O)(=O)c3ccccc3] | > 50 | 0 | – |
| CC1CN(C(=O)C(C)N2CCC(NS(=O)(=O)c3ccccc3)CC2)CC(C)O1 (stereo not shown) [C272, CC1CN(CC(O1)C)C(=O)C(C)[NH+]2CCC(CC2)NS(=O)(=O)c3ccccc3] | > 50 | 0 | – |

| Compound | IC50 [1, 3] [µM] | Decoy – 0 Active – 1 [1, 4] | further results |
| --- | --- | --- | --- |
| COc1ccc(C(=O)C2CCCN(Cc3cc4ccccc4[nH]3)C2)c(OC)c1 (stereo not shown) [C273, COc1ccc(C(=O)C2CCCN(Cc3cc4ccccc4[nH]3)C2)c(OC)c1] | > 50 | 0 | – |
| Cc1nc[nH]c1C(=O)NC1CC(=O)N(Cc2ccccc2Cl)C1 (stereo not shown) [C274, Cc1nc[nH]c1C(=O)NC1CC(=O)N(Cc2ccccc2Cl)C1] | > 50 | 0 | – |
| CN1CCN(CCC2CCCCN2Cc2nc3ccccc3[nH]2)CC1 (stereo not shown) [C275, CN1CCN(CCC2CCCCN2Cc2nc3ccccc3[nH]2)CC1] | > 50 | 0 | – |
| Cc1nc[nH]c1C(=O)NC1CC(=O)N(Cc2cccc3ccccc23)C1 (stereo not shown) [C276, Cc1nc[nH]c1C(=O)NC1CC(=O)N(Cc2cccc3ccccc23)C1] | > 50 | 0 | – |
| O=C1CC(NCc2nc3ccccc3[nH]2)CN1Cc1ccccc1C(F)(F)F (stereo not shown) [C277, O=C1CC(NCc2nc3ccccc3[nH]2)CN1Cc1ccccc1C(F)(F)F] | > 50 | 0 | – |
| CCN(Cc1ccc(Cl)cc1)Cc1cc(=O)c2cccc(F)c2[nH]1 [C278, CCN(Cc1ccc(Cl)cc1)Cc1cc(=O)c2cccc(F)c2[nH]1] | > 50 | 0 | – |
| COc1cccc(C2CC(O)CN2Cc2nc3ccccc3[nH]2)c1 (stereo not shown) [C279, COc1cccc(C2CC(O)CN2Cc2nc3ccccc3[nH]2)c1] | > 50 | 0 | – |
| O=C(c1cn2ccccc2n1)N(CCN1CCCC1)Cc1ccc(Cl)c(Cl)c1 [C280, O=C(c1cn2ccccc2n1)N(CCN1CCCC1)Cc1ccc(Cl)c(Cl)c1] | > 50 | 0 | – |
| CC1CN(Cc2ccccc2)CCC1N(C)CC(=O)NC12CC3CC(CC(C3)C1)C2 (stereo not shown) [C281, CC1CN(Cc2ccccc2)CCC1N(C)CC(=O)NC12CC3CC(CC(C3)C1)C2] | > 50 | 0 | – |
| CCN1CCCC1C1CCCN1C(=O)CCc1c[nH]c2ccccc12 (stereo not shown) [C282, CCN1CCCC1C1CCCN1C(=O)CCc1c[nH]c2ccccc12] | > 50 | 0 | – |
| CCN(CC)C(CNC(=O)c1ccc(C)[nH]c1=O)Cc1ccccc1 (stereo not shown) [C283, CCN(CC)C(CNC(=O)c1ccc(C)[nH]c1=O)Cc1ccccc1] | – | 0 | IC50 [1]: > 50 µM |
| O=C(CN1CCCC1Cc1ccccc1Cl)NC1CCCCNC1=O (stereo not shown) [C284, O=C(CN1CCCC1Cc1ccccc1Cl)NC1CCCCNC1=O] | > 50 | 0 | – |
| O=C(NCC(=O)N1CCCC1c1ccc2c(c1)OCO2)c1cc2ccccc2[nH]1 (stereo not shown) [C285, O=C(NCC(=O)N1CCCC1c1ccc2c(c1)OCO2)c1cc2ccccc2[nH]1] | > 50 | 0 | – |
| O=C1CCCc2[nH]c(=O)c(C(=O)NC3CCc4cc(F)ccc43)cc21 (stereo not shown) [C286, O=C1CCCc2[nH]c(=O)c(C(=O)NC3CCc4cc(F)ccc43)cc21] | > 50 | 0 | – |
| CN(C)C(=O)c1ccc(CN2CCCC2c2cccc(Cl)c2)[nH]1 (stereo not shown) [C287, CN(C)C(=O)c1ccc(CN2CCCC2c2cccc(Cl)c2)[nH]1] | > 50 | 0 | – |
| CCOc1ccc(NC(=O)C2CCN(C3=NS(=O)(=O)C(c4ccc(OC)cc4)=C3C)CC2)cc1 [CS-1] | – | – | thermal stabilization of CCR7 [2]: hits in the thermofluor stability assay, albeit less potent than cmp2105 and navarixin |
| CC(C)(C)c1ccc(S(=O)(=O)Nc2ccc(Cl)cc2C(=O)c2cc[n+]([O-])cc2)cc1 [Vercirnon] | – | – | thermal stabilization of CCR7 [2]: completely lacked the ability to thermally stabilize CCR7 |
| Maraviroc [reference compound] | – | – | thermal stabilization of CCR7 [2]: completely lacked the ability to thermally stabilize CCR7; CCR7 antagonism in calcium mobilization assay ([1]; CCL19-induced, result in words): absence of activity; Decoy – 0 Active – 1 ([1]; classification of tested compounds as decoy or active): 0 |
